These results are taken from patent US20240060989A1, “METHODS FOR MEASURING CRALBP ACTIVITY” (NOVARTIS AG, priority 2019, published 2024).

The target of the test is T1, human CRALBP protein (Homo sapiens, UniProt P12271).
T1 construct: purchased GeneTex GTX109228-pro
Kind of test: CRALBP binding assay, Biacore surface plasmon resonance (proteinA/G capture). The note with it: for Ka: 1:1 binding model, Biacore T200. Here is the method: Binding of 11-cis-retinol to human CRALBP protein was assessed for affinity determinations using Biacore. Kinetic rate constants was performed via surface plasmon resonance (SPR) using the Biacore T200 instrument (Cytiva, formerly GE Healthcare Lifesciences) as described below. The proteinA/G capture method was utilized in order to determine kinetics for 11-cis-retinol.
Recombinant proteinA/G (PIERCE, Cat #21186) was immobilized on the chip surface by using amino-coupling procedure according to the supplier's instruction (Cytiva, BR-1000-50). This immobilized proteinA/G captured commercial anti-CRALBP mouse IgG (Sigma, WH0006017M1, lot #11319-1H7), which then captured human CARLBP protein (GeneTex, GTX109228-pro, lot #42226) on chip surface. The 11-cis-retinol (Biosynth Carbosynth, FR163659) flowed over as analyte.
The 11-cis-retinol concentration started at […] and was serially diluted at one part to one part for five levels of concentration. Regeneration was performed at the end of each cycle using Glycine-HCl pH2.0 (Cytiva, BR-1003-55). The sample dilution step and Biacore experiment were performed either under ambient light or dark condition in which the Biacore sample compartment door was covered by aluminum foil.
Double reference subtraction was completed to generate final data. Kinetic rate constants was obtained by applying 1:1 binding model with Biacore T200 evaluation 3.0 software, wherein the Rmax values were fit locally. Binding was assess under dark and ambient light conditions.

T1 sequence (P12271 whole entry): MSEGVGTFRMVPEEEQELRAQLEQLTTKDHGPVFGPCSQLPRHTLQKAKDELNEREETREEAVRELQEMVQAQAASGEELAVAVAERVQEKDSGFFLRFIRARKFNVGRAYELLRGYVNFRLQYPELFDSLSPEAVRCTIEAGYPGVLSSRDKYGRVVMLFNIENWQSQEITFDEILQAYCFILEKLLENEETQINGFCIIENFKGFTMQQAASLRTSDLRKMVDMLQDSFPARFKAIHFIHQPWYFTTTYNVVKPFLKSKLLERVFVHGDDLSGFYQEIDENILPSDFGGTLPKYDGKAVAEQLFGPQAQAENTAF

`CC1=C(/C=C/C(C)=C/C=C\C(C)=C\CO)C(C)(C)CCC1` [11-cis-retinol]: the “binding to human CRALBP” value is “able to bind” (ambient light (FIG. 2A)) and “able to bind” (dark (FIG. 2B)). Also, the Ka was determined as 12.69 M⁻¹ s⁻¹ (ambient light) and 21.03 M⁻¹ s⁻¹ (dark).
